Test results as given in ChEMBL document CHEMBL4038347, “Converting Teixobactin into a Cationic Antimicrobial Peptide (AMP)” (2017).
Values after ≈ are worked out from the molar mass of the structure shown. Active and inactive are the calls of the source. The rule behind the calls is not given here.

Experiments:
Assay type in all cases: functional
Escherichia coli = assay: Antibacterial activity against Escherichia coli ATCC 25922 after 24 hrs by broth microdilution method
Staphylococcus aureus = assay: Antibacterial activity against Staphylococcus aureus ATCC 29213 after 24 hrs by broth microdilution method
Bacillus subtilis = assay: Antibacterial activity against Bacillus subtilis ATCC 6051 after 24 hrs by broth microdilution method
Pseudomonas aeruginosa = assay: Antibacterial activity against Pseudomonas aeruginosa ATCC 27853 after 24 hrs by broth microdilution method

| SMILES | MIC (Escherichia coli; ATCC 25922, 24 h) [µg/mL] | MIC (Staphylococcus aureus; ATCC 29213, 24 h) [µg/mL] | MIC (Bacillus subtilis; ATCC 6051, 24 h) [µg/mL] | MIC (Pseudomonas aeruginosa; ATCC 27853, 24 h) [µg/mL] | MIC (Staphylococcus aureus) | MIC (Escherichia coli) | MIC (Pseudomonas aeruginosa) | MIC (Bacillus subtilis) |
| --- | --- | --- | --- | --- | --- | --- | --- | --- |
| CC[C@H](C)[C@H](NC(=O)[C@@H](Cc1ccccc1)NC)C(=O)N[C@@H](CO)C(=O)N[C@H](CCC(N)=O)C(=O)N[C@@H](C(=O)N[C@H](C(=O)N[C@@H](CCCCN)C(=O)N[C@H]1C(=O)N[C@@H](CCCCN)C(=O)N[C@@H](CCCCN)C(=O)N[C@@H]([C@@H](C)CC)C(=O)O[C@H]1C)[C@@H](C)CC)[C@@H](C)CC | 128 (≈ 97.4 µM) | 128 (≈ 97.4 µM) | 8 (≈ 6.09 µM) | 256 (≈ 195 µM) |  |  |  |  |
| CC[C@H](C)[C@H](NC(=O)[C@@H](Cc1ccccc1)NC)C(=O)N[C@@H](CO)C(=O)N[C@H](CCC(N)=O)C(=O)N[C@@H](C(=O)N[C@H](C(=O)N[C@@H](CO)C(=O)N[C@H]1C(=O)N[C@@H](C)C(=O)N[C@@H](CCN=C(N(C)C)N(C)C)C(=O)N[C@@H]([C@@H](C)CC)C(=O)O[C@H]1C)[C@@H](C)CC)[C@@H](C)CC |  | 64 (≈ 49.7 µM) | 4 (≈ 3.11 µM) |  |  | inactive | inactive |  |
| CC[C@H](C)[C@H](NC(=O)[C@@H](Cc1ccccc1)NC)C(=O)N[C@@H](CO)C(=O)N[C@H](CCC(N)=O)C(=O)N[C@@H](C(=O)N[C@H](C(=O)N[C@@H](CO)C(=O)N[C@H]1C(=O)N[C@@H](C)C(=O)N[C@@H](CC/N=C(\N(C)C)N2CCOCC2)C(=O)N[C@@H]([C@@H](C)CC)C(=O)O[C@H]1C)[C@@H](C)CC)[C@@H](C)CC |  | 64 (≈ 48.2 µM) | 4 (≈ 3.01 µM) |  |  | inactive | inactive |  |
| CC[C@H](C)[C@H](NC(=O)[C@@H](Cc1ccccc1)NC)C(=O)N[C@@H](CO)C(=O)N[C@H](CCC(N)=O)C(=O)N[C@@H](C(=O)N[C@H](C(=O)N[C@@H](CO)C(=O)N[C@H]1C(=O)N[C@@H](C)C(=O)N2C[C@@H](N)C[C@H]2C(=O)N[C@@H]([C@@H](C)CC)C(=O)O[C@H]1C)[C@@H](C)CC)[C@@H](C)CC |  |  |  |  | inactive | inactive | inactive | inactive |
| CC[C@H](C)[C@H](NC(=O)[C@@H](Cc1ccccc1)NC)C(=O)N[C@@H](CO)C(=O)N[C@H](CCCCN)C(=O)N[C@@H](C(=O)N[C@H](C(=O)N[C@@H](CO)C(=O)N[C@H]1C(=O)N[C@@H](C)C(=O)N[C@@H](CCCN)C(=O)N[C@@H]([C@@H](C)CC)C(=O)O[C@H]1C)[C@@H](C)CC)[C@@H](C)CC | 64 (≈ 53.2 µM) | 2 (≈ 1.66 µM) | 2 (≈ 1.66 µM) | 256 (≈ 213 µM) |  |  |  |  |
| CC[C@H](C)[C@H](NC(=O)[C@@H](Cc1ccccc1)NC)C(=O)N[C@@H](CCCCN)C(=O)N[C@H](CCCCN)C(=O)N[C@@H](C(=O)N[C@H](C(=O)N[C@@H](CO)C(=O)N[C@H]1C(=O)N[C@@H](CCCCN)C(=O)N[C@@H](CCCCN)C(=O)N[C@@H]([C@@H](C)CC)C(=O)O[C@H]1C)[C@@H](C)CC)[C@@H](C)CC | 32 (≈ 24.3 µM) | 32 (≈ 24.3 µM) | 8 (≈ 6.08 µM) | 64 (≈ 48.7 µM) |  |  |  |  |

Other lines, results leading:

| MIC (Escherichia coli; ATCC 25922, 24 h) [µg/mL] | MIC (Staphylococcus aureus; ATCC 29213, 24 h) [µg/mL] | MIC (Bacillus subtilis; ATCC 6051, 24 h) [µg/mL] | MIC (Pseudomonas aeruginosa; ATCC 27853, 24 h) [µg/mL] | MIC (Staphylococcus aureus) | MIC (Escherichia coli) | MIC (Pseudomonas aeruginosa) | MIC (Bacillus subtilis) | SMILES |
| --- | --- | --- | --- | --- | --- | --- | --- | --- |
| 128 (≈ 103 µM) |  | 16 (≈ 12.9 µM) | 128 (≈ 103 µM) | inactive |  |  |  | CC[C@H](C)[C@H](NC(=O)[C@@H](Cc1ccccc1)NC)C(=O)N[C@@H](CO)C(=O)N[C@H](CCCCN)C(=O)N[C@@H](C(=O)N[C@H](C(=O)N[C@@H](CCCCN)C(=O)N[C@H]1C(=O)N[C@@H](C)C(=O)N[C@@H](CCCN)C(=O)N[C@@H]([C@@H](C)CC)C(=O)O[C@H]1C)[C@@H](C)CC)[C@@H](C)CC |
| 64 (≈ 51.5 µM) | 2 (≈ 1.61 µM) | 2 (≈ 1.61 µM) | 256 (≈ 206 µM) |  |  |  |  | CC[C@H](C)[C@H](NC(=O)[C@@H](Cc1ccccc1)NC)C(=O)N[C@@H](CCCCN)C(=O)N[C@H](CCC(N)=O)C(=O)N[C@@H](C(=O)N[C@H](C(=O)N[C@@H](CO)C(=O)N[C@H]1C(=O)N[C@@H](C)C(=O)N[C@@H](CCCN)C(=O)N[C@@H]([C@@H](C)CC)C(=O)O[C@H]1C)[C@@H](C)CC)[C@@H](C)CC |
